# Source: patent US11040028B2, “Penicinotam derivative, preparation method and use thereof” (OCEAN UNIVERSITY OF CHINA, priority 2017, dated 2021)
# Assays:
# Type in all cases: cell-based
# [1] = tested on: BHK-21 cells; test: Anti-fibrosis activity test: inhibition of BHK-21 cell proliferation (CCK-8); settings: Mesocricetus auratus, BHK-21, 48 h
# Summary of the method: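 BHK-21 cells seeded at 2×10^4 cells/mL, allowed to adhere 24 h at 37° C, 5% CO2, then exposed to compounds at graded concentrations in triplicate for 48 h. CCK-8 added for 2 h and absorbance read at 450 nm; inhibition rate taken as (1−Ai/Ao)×100% and IC50 fitted.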
# [2] = tested on: human fibrosarcoma cells HT-1080; test: Anti-fibrosis activity test: inhibition of proliferation of human fibrosarcoma cells HT-1080 (CCK-8); settings: Homo sapiens, HT-1080, 48 h
# Summary of the method: (§1)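 A CCK-8 proliferation assay was run: cells at 2×10^4 cells/mL, adherent for 24 h, then incubated 48 h at 37° C with compound dilutions. A450 was recorded 2 h after CCK-8 addition and converted to percent inhibition versus blank for IC50 determination.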
# [3] = tested on: human embryonic lung fibroblast IMR-90; test: Anti-fibrosis activity test: inhibition of proliferation of human embryonic lung fibroblast IMR-90 (CCK-8)
# Summary of the method: as §1
# [4] = tested on: human lung fibroblasts HFL1; test: Anti-fibrosis activity test: inhibition of proliferation of human lung fibroblasts HFL1 (CCK-8); settings: Homo sapiens, HFL1, 48 h
# Summary of the method: as §1
# [5] = tested on: NF-κB; test: Immunological activity test: inhibition of NF-κB activity; settings: initial concentration of 30 μM; a/b isomers given as first/second symbol; read-out: IC50 (μM), inhibitory activity against NF-κB
# Summary of the method: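 Single-point testing at 30 μM preceded IC50 determination.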
# [6] = tested on: mouse macrophages (RAW264.7); test: Lipopolysaccharide-induced NO secretion in macrophages (Griess); settings: Mus musculus, RAW264.7, 24 h, RAW264.7, LPS 1 μg/ml, a/b isomers given as first/second symbol, read-out: IC50 (μM), inhibition of lipopolysaccharide-induced NO secretion in macrophages
# Summary of the method: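 Absorbance at 548 nm after Griess reagent addition to culture supernatant gave NO content; inhibition rate was derived relative to blank control. Cells were mouse RAW264.7 macrophages exposed to compounds and 1 μg/ml LPS for 24 hours.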
# [7] = tested on: human dermal fibroblasts CCC-ESF-1; test: Anti-fibrosis activity test: inhibition of proliferation of human dermal fibroblasts CCC-ESF-1 (CCK-8); settings: Fibroblast
# Summary of the method: as §1
# [8] = tested on: cardiac fibroblast RAT-iCell-C002; test: Anti-fibrosis activity test: inhibition of proliferation of cardiac fibroblast RAT-iCell-C002 (CCK-8); settings: Cardiac fibroblast, 48 h
# Summary of the method: as §1
# [9] = tested on: human hepatic stellate cells LX-2; test: Anti-fibrosis activity test: inhibition of proliferation of human hepatic stellate cells LX-2 (CCK-8); settings: Homo sapiens, 48 h
# Summary of the method: as §1
# [10] = CCK-8, 48 hours after administration
# [11] = human fibrosarcoma cells HT-1080, CCK-8, 48 hours
# [12] = human embryonic lung fibroblast IMR-90, CCK-8, 48 hours
# [13] = human lung fibroblasts HFL1, CCK-8, 48 hours
# [14] = human dermal fibroblasts CCC-ESF-1, CCK-8, 48 hours
# [15] = cardiac fibroblast RAT-iCell-C002, CCK-8, 48 hours
# [16] = human hepatic stellate cells LX-2, CCK-8, 48 hours
# [17] = Homo sapiens, IMR-90 cells, 48 h, CCK-8
# [18] = Homo sapiens, CCC-ESF-1 cells, 48 h, CCK-8
SMILES,"IC50 [2, 11]",IC50 [5],IC50 [6],"IC50 ([2]; HT-1080 cells, 48 h, CCK-8)","IC50 [1, 10]","IC50 [3, 12]","IC50 [4, 13]","IC50 [7, 14]","IC50 [8, 15]","IC50 [9, 16]","IC50 ([1]; 48 h, CCK-8)","IC50 [3, 17]","IC50 ([4]; HFL1 cells, 48 h, CCK-8)","IC50 [7, 18]","IC50 ([8]; RAT-iCell-C002 cells, CCK-8)","IC50 ([9]; LX-2, 48 h, LX-2 cells, CCK-8)"
"Cn1c2c(c(=O)c3cc(F)ccc31)C(=O)n1cccc1-2 [Compound 157a, 7-Fluoro-4-methyl-9H-pyrrolizino[1,2-b]quinoline-9,10(4H)-dione]",0.05 to 5 mM,10 to 50 µM,0.1 to 1 µM,,5 to 20 mM,0.05 to 5 mM,0.05 to 5 mM,0.05 to 5 mM,0.05 to 5 mM,0.05 to 5 mM,,,,,,
"O=C1c2c(nc3c(C(F)(F)F)cccc3c2O)-c2cccn21 [Compound 448b, 9-hydroxy-5-(trifluoromethyl)-10H-pyrrolizino[1,2-b]quinolin-10-one]",< 0.05 mM,1 to 10 µM,1 to 10 µM,,0.05 to 5 mM,0.05 to 5 mM,0.05 to 5 mM,0.05 to 5 mM,0.05 to 5 mM,0.05 to 5 mM,,,,,,
"CS(=O)(=O)n1c2c(c(=O)c3ccccc31)C(=O)n1cccc1-2 [Compound 650a, 4-(Methylsulfonyl)-9H-pyrrolizino[1,2-b]quinoline-9,10(4H)-dione]",0.05 to 5 mM,1 to 10 µM,1 to 10 µM,,< 0.05 mM,0.05 to 5 mM,0.05 to 5 mM,0.05 to 5 mM,0.05 to 5 mM,0.05 to 5 mM,,,,,,
"O=C(Oc1c2c(nc3ccccc13)-c1cccn1C2=O)c1ccco1 [Compound 95b, 10-oxo-10H-pyrrolizino[1,2-b]quinolin-9-ylfuran-2-carboxylate]",0.05 to 5 mM,1 to 10 µM,1 to 10 µM,,0.05 to 5 mM,0.05 to 5 mM,0.05 to 5 mM,0.05 to 5 mM,0.05 to 5 mM,< 0.05 mM,,,,,,
"N#Cc1ccc2c(=O)c3c([nH]c2c1)-c1cccn1C3=O [Compound 512a, 9,10-Dioxo-4,10-dihydro-9H-pyrrolizino[1,2-b]quinoline-6-carbonitrile]",0.05 to 5 mM,1 to 10 µM,1 to 10 µM,,0.05 to 5 mM,0.05 to 5 mM,0.05 to 5 mM,0.05 to 5 mM,0.05 to 5 mM,< 0.05 mM,,,,,,
"N#Cc1ccccc1COc1c2c(nc3ccccc13)-c1cccn1C2=O [Compound 577b, 2-(((10-oxo-10H-pyrrolizino[1,2-b]quinolin-9-yl)oxy)methyl)benzonitrile]",0.05 to 5 mM,1 to 10 µM,1 to 10 µM,,0.05 to 5 mM,0.05 to 5 mM,0.05 to 5 mM,0.05 to 5 mM,0.05 to 5 mM,0.05 to 5 mM,,,,,,
"O=C(COc1c2c(nc3ccccc13)-c1cccn1C2=O)c1ccc(Cl)cc1 [Compound 90b, 9-(2-(4-chlorophenyl)-2-oxoethoxy)-10H-pyrrolizino[1,2-b]quinolin-10-one]",5 to 20 mM,1 to 10 µM,0.1 to 1 µM,,0.05 to 5 mM,0.05 to 5 mM,0.05 to 5 mM,0.05 to 5 mM,0.05 to 5 mM,0.05 to 5 mM,,,,,,
"Cc1ccc2nc3c(c(O)c2c1)C(=O)n1cccc1-3 [Compound 696b, 9-hydroxy-7-methyl-10H-pyrrolizino[1,2-b]quinolin-10-one]",,1 to 10 µM,1 to 10 µM,0.05 to 5 mM,,,,,,,0.05 to 5 mM,0.05 to 5 mM,0.05 to 5 mM,0.05 to 5 mM,0.05 to 5 mM,0.05 to 5 mM
"O=C1c2c(nc3cc(O)ccc3c2O)-c2cccn21 [Compound 524b, 6,9-dihydroxy-10H-pyrrolizino[1,2-b]quinolin-10-one]",0.05 to 5 mM,10 to 50 µM,1 to 10 µM,,0.05 to 5 mM,0.05 to 5 mM,0.05 to 5 mM,0.05 to 5 mM,0.05 to 5 mM,0.05 to 5 mM,,,,,,
"O=C1c2c(n(CCCN3CCCCC3)c3ccccc3c2=O)-c2cccn21 [Compound 666a, 4-(3-(Piperidin-1-yl)propyl)-9H-pyrrolizino[1,2-b]quinoline-9,10(4H)-dione]",,1 to 10 µM,1 to 10 µM,0.05 to 5 mM,,,,,,,0.05 to 5 mM,0.05 to 5 mM,0.05 to 5 mM,0.05 to 5 mM,0.05 to 5 mM,0.05 to 5 mM

# Further lines, with some results ahead:
"IC50 [2, 11]",IC50 [5],IC50 [6],"IC50 ([2]; HT-1080 cells, 48 h, CCK-8)",SMILES,"IC50 [1, 10]","IC50 [3, 12]","IC50 [4, 13]","IC50 [7, 14]","IC50 [8, 15]","IC50 [9, 16]","IC50 ([1]; 48 h, CCK-8)","IC50 [3, 17]","IC50 ([4]; HFL1 cells, 48 h, CCK-8)","IC50 [7, 18]","IC50 ([8]; RAT-iCell-C002 cells, CCK-8)","IC50 ([9]; LX-2, 48 h, LX-2 cells, CCK-8)"
0.05 to 5 mM,0.1 to 1 µM,1 to 10 µM,,"O=C1c2c(n(Cc3cc(F)cc(F)c3)c3ccccc3c2=O)-c2cccn21 [Compound 579a, 4-(3,5-Difluorobenzyl)-9H-pyrrolizino[1,2-b]quinoline-9,10(4H)-dione]",0.05 to 5 mM,0.05 to 5 mM,0.05 to 5 mM,0.05 to 5 mM,0.05 to 5 mM,0.05 to 5 mM,,,,,,
0.05 to 5 mM,1 to 10 µM,1 to 10 µM,,"O=C1c2c(nc3cccc(Cl)c3c2O)-c2cccn21 [Compound 464b, 8-chloro-9-hydroxy-10H-pyrrolizino[1,2-b]quinolin-10-one]",0.05 to 5 mM,0.05 to 5 mM,< 0.05 mM,0.05 to 5 mM,0.05 to 5 mM,0.05 to 5 mM,,,,,,
0.05 to 5 mM,1 to 10 µM,0.1 to 1 µM,,"O=C1c2c(n(Cc3ccc(C(F)(F)F)cc3)c3ccccc3c2=O)-c2cccn21 [Compound 591a, 4-(4-(Trifluoromethyl)benzyl)-9H-pyrrolizino[1,2-b]quinoline-9,10(4H)-dione]",0.05 to 5 mM,0.05 to 5 mM,0.05 to 5 mM,0.05 to 5 mM,0.05 to 5 mM,0.05 to 5 mM,,,,,,
0.05 to 5 mM,1 to 10 µM,0.1 to 1 µM,,"O=C1c2c(nc3ccc(OC(F)(F)F)cc3c2O)-c2cccn21 [Compound 306b, 9-hydroxy-7-(trifluoromethoxy)-10H-pyrrolizino[1,2-b]quinolin-10-one]",0.05 to 5 mM,0.05 to 5 mM,0.05 to 5 mM,0.05 to 5 mM,0.05 to 5 mM,0.05 to 5 mM,,,,,,
0.05 to 5 mM,1 to 10 µM,1 to 10 µM,,"O=C1c2c(nc3cc(C(F)(F)F)ccc3c2O)-c2cccn21 [Compound 536b, 9-hydroxy-6-(trifluoromethyl)-10H-pyrrolizino[1,2-b]quinolin-10-one]",0.05 to 5 mM,0.05 to 5 mM,0.05 to 5 mM,0.05 to 5 mM,0.05 to 5 mM,0.05 to 5 mM,,,,,,
0.05 to 5 mM,1 to 10 µM,1 to 10 µM,,"CS(=O)(=O)CCCn1c2c(c(=O)c3ccccc31)C(=O)n1cccc1-2 [Compound 659a, 4-(3-(Methylsulfonyl)propyl)-9H-pyrrolizino[1,2-b]quinoline-9,10(4H)-dione]",0.05 to 5 mM,0.05 to 5 mM,0.05 to 5 mM,0.05 to 5 mM,0.05 to 5 mM,0.05 to 5 mM,,,,,,
0.05 to 5 mM,1 to 10 µM,1 to 10 µM,,"C=CCOc1c2c(nc3ccccc13)-c1cccn1C2=O [Compound 6b, 9-(allyloxy)-10H-pyrrolizino[1,2-b]quinolin-10-one]",0.05 to 5 mM,0.05 to 5 mM,0.05 to 5 mM,5 to 20 mM,0.05 to 5 mM,0.05 to 5 mM,,,,,,
0.05 to 5 mM,0.1 to 1 µM,1 to 10 µM,,"O=C1c2c(n(Cc3ccc([N+](=O)[O-])cc3)c3ccccc3c2=O)-c2cccn21 [Compound 593a, 4-(4-Nitrobenzyl)-9H-pyrrolizino[1,2-b]quinoline-9,10(4H)-dione]",0.05 to 5 mM,0.05 to 5 mM,0.05 to 5 mM,0.05 to 5 mM,0.05 to 5 mM,0.05 to 5 mM,,,,,,
